# Data published in EPA's CvTdb concentration-time database.
# Tests used:
# Rat [1] = experiment: concentration in plasma after dosing; conditions: dosed: 2,4-Dichlorophenoxyacetic acid, 2.0 mg/kg, iv, Male, Sprague-Dawley
# Rat [2] = experiment: concentration in plasma after dosing; conditions: dosed: 2,4-Dichlorophenoxyacetic acid, 7.0 mg/kg, oral, Male, Sprague-Dawley
# Mouse [3] = experiment: concentration in plasma after dosing; conditions: 10 min; dosed: 2-Hydroxy-4-methoxybenzophenone; 50 mg/kg; iv; Female; B6C3F1
# Mouse [4] = experiment: concentration in plasma after dosing; conditions: 2 h; dosed: 2-Hydroxy-4-methoxybenzophenone; 250 mg/kg; oral; Female; B6C3F1
# Rat [5] = experiment: concentration in plasma after dosing; conditions: dosed: 2-Hydroxy-4-methoxybenzophenone, 250 mg/kg, oral, Male, F344
# Rat [6] = experiment: concentration in plasma after dosing; conditions: dosed: 2-Hydroxy-4-methoxybenzophenone, 250 mg/kg, oral, Female, F344
# Mouse [7] = experiment: concentration in plasma after dosing; conditions: 10 min; dosed: 2-Hydroxy-4-methoxybenzophenone; 500 mg/kg; oral; Female; B6C3F1
# Mouse [8] = experiment: concentration in plasma after dosing; conditions: 10 min; dosed: 2-Hydroxy-4-methoxybenzophenone; 50 mg/kg; iv; Female; B6C3F1; remark: listed apart in the source
# Rat [9] = experiment: concentration in plasma after dosing; conditions: dosed: 2-Hydroxy-4-methoxybenzophenone, 100 mg/kg, oral, Female, F344
# Mouse [10] = experiment: concentration in plasma after dosing; conditions: 2 h; dosed: 2-Hydroxy-4-methoxybenzophenone; 250 mg/kg; oral; Male; B6C3F1
# Mouse [11] = experiment: concentration in plasma after dosing; conditions: 2 h; dosed: 2-Hydroxy-4-methoxybenzophenone; 250 mg/kg; oral; Female; B6C3F1; remark: listed apart in the source
# Rat [12] = experiment: concentration in plasma after dosing; conditions: dosed: Methyleugenol, 37 mg/kg, oral, Female, F344/N
# Rat [13] = experiment: concentration in plasma after dosing; conditions: dosed: Methyleugenol, 37 mg/kg, oral, Male, F344/N
# Rat [14] = experiment: concentration in brain after dosing; conditions: 12 h; dosed: Perfluorohexane-1-sulphonic acid – potassium salt; 16 mg/kg; oral; Female; Harlan Sprague Dawley
# Rat [15] = experiment: concentration in plasma after dosing; conditions: dosed: Perfluorohexane-1-sulphonic acid – potassium salt, 4 mg/kg, oral, Male, F344
# Rat [16] = experiment: concentration in kidney after dosing; conditions: 24 h; dosed: Perfluorohexane-1-sulphonic acid – potassium salt; 16 mg/kg; oral; Female; Harlan Sprague Dawley
# Rat [17] = experiment: concentration in kidney after dosing; conditions: 192 h; dosed: Perfluorohexane-1-sulphonic acid – potassium salt; 16 mg/kg; oral; Female; Harlan Sprague Dawley
# Rat [18] = experiment: concentration in kidney after dosing; conditions: 6 h; dosed: Perfluorohexane-1-sulphonic acid – potassium salt; 16 mg/kg; oral; Female; F344
# Rat [19] = experiment: concentration in plasma after dosing; conditions: 0.25 h; dosed: Primidone; 30 mg/kg; oral; Female; F344
# Rat [20] = experiment: concentration in plasma after dosing; conditions: 3 h; dosed: Primidone; 30 mg/kg; oral; Male; F344
# Rat [21] = experiment: concentration in plasma after dosing; conditions: 0.5 h; dosed: Primidone; 130 mg/kg; oral; Male; Harlan Sprague Dawley
# Rat [22] = experiment: concentration in plasma after dosing; conditions: 2 h; dosed: Pyridine; 10 mg/kg; iv; Male; F344
# Rat [23] = experiment: concentration in plasma after dosing; conditions: 2 min; dosed: Pyridine; 10 mg/kg; oral; Male; F344
# Rat [24] = experiment: concentration in plasma after dosing; conditions: 2 h; dosed: Pyridine; 5 mg/kg; oral; Male; F344
# Rat [25] = experiment: concentration in plasma after dosing; conditions: dosed: Pyridine, 25 mg/kg, oral, Male, F344
# Rat [26] = experiment: concentration in plasma after dosing; conditions: dosed: Pyridine, 5 mg/kg, iv, Male, F344
# Rat [27] = experiment: concentration in brain after dosing; conditions: 10 min; dosed: alpha-Thujone; 25 mg/kg; oral; Male; Harlan Sprague Dawley
# Rat [28] = experiment: concentration in brain after dosing; conditions: 3 h; dosed: alpha-Thujone; 50 mg/kg; oral; Female; Harlan Sprague Dawley
# Rat [29] = experiment: concentration in brain after dosing; conditions: 6 h; dosed: alpha-Thujone; 50 mg/kg; oral; Female; Harlan Sprague Dawley
# Rat [30] = experiment: concentration in brain after dosing; conditions: 10 min; dosed: alpha-Thujone; 25 mg/kg; oral; Male; Harlan Sprague Dawley; remark: listed apart in the source
# Rat [31] = experiment: concentration in brain after dosing; conditions: 0.5 h; dosed: alpha-Thujone; 50 mg/kg; oral; Female; Harlan Sprague Dawley
# Rat [32] = experiment: concentration in plasma after dosing; conditions: 1.5 h; dosed: alpha-Thujone; 25 mg/kg; oral; Male; Harlan Sprague Dawley
# Rat [33] = experiment: concentration in plasma after dosing; conditions: 1.5 h; dosed: alpha-Thujone; 25 mg/kg; oral; Male; Harlan Sprague Dawley; remark: listed apart in the source
# Rat [34] = experiment: concentration in plasma after dosing; conditions: 12 h; dosed: alpha-Thujone; 50 mg/kg; oral; Male; Harlan Sprague Dawley
# Rat [35] = experiment: concentration in plasma after dosing; conditions: 3 h; dosed: alpha-Thujone; 25 mg/kg; oral; Female; Harlan Sprague Dawley
# Rat [36] = experiment: concentration in plasma after dosing; conditions: 10 min; dosed: alpha-Thujone; 25 mg/kg; oral; Male; Harlan Sprague Dawley
smiles,measurement,setting,value
"O=C(O)COc1ccc(Cl)cc1Cl [2,4-Dichlorophenoxyacetic acid]",concentration in plasma,Rat [1]; 2.5 min,26200 ng/mL
same,concentration in plasma,Rat [1]; 0.25 h,15300 ng/mL
same,concentration in plasma,Rat [1]; 0.5 h,6490 ng/mL
same,concentration in plasma,Rat [1]; 0.75 h,6000 ng/mL
same,concentration in plasma,Rat [1]; 2 h,1910 ng/mL
same,concentration in plasma,Rat [1]; 2.5 h,720 ng/mL
same,concentration in plasma,Rat [1]; 3 h,282 ng/mL
same,concentration in plasma,Rat [2]; 2.5 min,7170 ng/mL
same,concentration in plasma,Rat [2]; 10 min,14700 ng/mL
same,concentration in plasma,Rat [2]; 0.25 h,8070 ng/mL
same,concentration in plasma,Rat [2]; 0.5 h,14500 ng/mL
same,concentration in plasma,Rat [2]; 2 h,4090 ng/mL
same,concentration in plasma,Rat [2]; 3 h,3180 ng/mL
same,concentration in plasma,Rat [2]; 4 h,3720 ng/mL
same,concentration in plasma,Rat [2]; 5 h,4480 ng/mL
same,concentration in plasma,Rat [2]; 6 h,1890 ng/mL
"O=C(c1ccccc1)c1ccc(O)cc1O [2,4-Dihydroxybenzophenone]",concentration in plasma,Mouse [3],2270 ng/mL
same,concentration in plasma,Mouse [4],472 ng/mL
same,concentration in plasma,Rat [5]; 0.25 h,83 ng/mL
same,concentration in plasma,Rat [5]; 4 h,121 ng/mL
same,concentration in plasma,Rat [6]; 10 min,128 ng/mL
same,concentration in plasma,Rat [6]; 3 h,213 ng/mL
same,concentration in plasma,Mouse [7],4230 ng/mL
same,concentration in plasma,Mouse [8],1610 ng/mL
same,concentration in plasma,Rat [9]; 0.25 h,165 ng/mL
same,concentration in plasma,Rat [9]; 4 h,105 ng/mL
same,concentration in plasma,Mouse [10],338 ng/mL
same,concentration in plasma,Mouse [11],190 ng/mL
C=CCc1ccc(OC)c(OC)c1 [Methyleugenol],concentration in plasma,Rat [12]; 20 min,146 ng/mL
same,concentration in plasma,Rat [12]; 5 h,5.58 ng/mL
same,concentration in plasma,Rat [13]; 2 min,36 ng/mL
same,concentration in plasma,Rat [13]; 3 h,46.1 ng/mL
O=S(=O)([O-])C(F)(F)C(F)(F)C(F)(F)C(F)(F)C(F)(F)C(F)(F)F.[K+] [Perfluorohexane-1-sulphonic acid – potassium salt],concentration in brain,Rat [14],1190 ng/g
same,concentration in plasma,Rat [15]; 0.25 h,5490 ng/mL
same,concentration in plasma,Rat [15]; 12 h,31800 ng/mL
same,concentration in plasma,Rat [15]; 528 h,8940 ng/mL
same,concentration in kidney,Rat [16],22700 ng/g
same,concentration in kidney,Rat [17],1650 ng/g
same,concentration in kidney,Rat [18],36400 ng/g
CCC1(c2ccccc2)C(=O)NCNC1=O [Primidone],concentration in plasma,Rat [19],12300 ng/mL
same,concentration in plasma,Rat [20],7700 ng/mL
same,concentration in plasma,Rat [21],55800 ng/mL
c1ccncc1 [Pyridine],concentration in plasma,Rat [22],320 ng/mL
same,concentration in plasma,Rat [23],453 ng/mL
same,concentration in plasma,Rat [24],2710 ng/mL
same,concentration in plasma,Rat [25]; 5 min,4220 ng/mL
same,concentration in plasma,Rat [25]; 4 h,15500 ng/mL
same,concentration in plasma,Rat [26]; 0.5 h,3400 ng/mL
same,concentration in plasma,Rat [26]; 8 h,874 ng/mL
CC(C)[C@]12CC(=O)[C@H](C)[C@H]1C2 [alpha-Thujone],concentration in brain,Rat [27],3920 ng/g
same,concentration in brain,Rat [28],416 ng/g
same,concentration in brain,Rat [29],165 ng/g
same,concentration in brain,Rat [30],731 ng/g
same,concentration in brain,Rat [31],878 ng/g
same,concentration in plasma,Rat [32],95.4 ng/mL
same,concentration in plasma,Rat [33],233 ng/mL
same,concentration in plasma,Rat [34],20 ng/mL
same,concentration in plasma,Rat [35],176 ng/mL
same,concentration in plasma,Rat [36],408 ng/mL
